Experimental findings from ChEMBL document CHEMBL5150055, “B-cell Lymphoma 6 Inhibitors: Current Advances and Prospects of Drug Development for Diffuse Large B-cell Lymphomas” (J Med Chem, 2022) are described below.

In series [1] the target is T1, B-cell lymphoma 6 protein (Homo sapiens, UniProt P41182). The series can be described thus: Binding affinity to BCL6 BTB domain (5 to 129 residues) (unknown origin) expressed in Escherichia coli using 5-TAMRA-RSEIISTAPSSWVVPGP as substrate incubated for 1 hrs by FP assay.
For series [2], the target named is T1, B-cell lymphoma 6 protein. The series can be described thus: Binding affinity to BCL6 BTB domain (5 to 129 residues) (unknown origin) expressed in Escherichia coli by SPR analysis.
In series [3] the test system is DOHH-2. The series is described as follows: Antitumor activity against BCL6 dependent human DOHH-2 cells assessed as cell growth inhibition. Type of series: functional, cell-based.
Series [4] relates to SU-DHL-6. The series can be described thus: Antitumor activity against BCL6 dependent human SU-DHL-6 cells assessed as cell growth inhibition. In kind it is functional, cell-based.
Series [5] has as its system L02. The series is described as follows: Antitumor activity against human L02 cells assessed as cell growth inhibition. In kind it is functional, cell-based.
For series [6], the system named is OCI-Ly7. The series is described as follows: Antitumor activity against BCL6 dependent human OCILY7 cells assessed as cell growth inhibition. In kind it is functional, cell-based.
In series [7] the test system is Farage. The series is described as follows: Antitumor activity against BCL6 dependent human Farage cells assessed as cell growth inhibition. Type of series: functional, cell-based.
The target of series [8] is T1, B-cell lymphoma 6 protein. The series is described as follows: Binding affinity to BCL6 BTB domain (unknown origin) by SPR analysis.
Series [9] concerns SUD4. The series can be described thus: Antitumor activity against BCL6 dependent human SU-DHL-4 cells assessed as cell growth inhibition. Type of series: functional, cell-based.
The target of series [10] is T1, B-cell lymphoma 6 protein. The series can be described thus: Inhibition of BCL6 (unknown origin) by HTRF assay.
A short description of series [11]: Binding affinity to wild type full length BCL6 BTB domain SMRT BBD motif sequence mutant (unknown origin) transfected in human HEK293 cells by electrophoretic mobility shift assay. Type of series: cell-based.
For series [12], the system named is OCI-Ly7. The series can be described thus: Antiproliferative activity against human OCILY7 cells assessed as growth inhbition by measuring metabolic viability incubated for 48 hrs by fluorometric resazurin reduction method. Type of series: functional, cell-based. To be noted: OCI-Ly7, 48 h.
The subject of series [13] is OCI-Ly10. The series is described as follows: Antiproliferative activity against human OCI-Ly10 cells assessed as growth inhbition by measuring metabolic viability incubated for 48 hrs by fluorometric resazurin reduction method. In kind it is functional, cell-based. To be noted: OCI-Ly10, 48 h.
Series [14] relates to OCI-Ly1. The series can be described thus: Antiproliferative activity against human OCI-Ly1 cells assessed as growth inhbition by measuring metabolic viability incubated for 48 hrs by fluorometric resazurin reduction method. The note with it: OCI-Ly1, 48 h. Type of series: functional, cell-based.
The target in series [15] is T1, B-cell lymphoma 6 protein. The series can be described thus: Binding affinity to wild type full length BCL6 BTB domain having SMRT BBD motif sequence (unknown origin) transfected in human HEK293 cells by electrophoretic mobility shift assay. Type of series: cell-based.
Series [16] has as its target T1, B-cell lymphoma 6 protein. The series can be described thus: Binding affinity to BCL6 (unknown origin) assessed as ratio of Kinact/Ki incubated for 4 hrs by IPC assay.
The nature of series [17]: Aqueous solubility of compound. Type of series: physicochemical. The note with it: buffer.
The target in series [18] is T1, B-cell lymphoma 6 protein. The series can be described thus: Displacement AF647-BCOR peptide from human BCL6 BTB-POZ domain incubated for 60 mins by TR-FRET assay.
The target of series [19] is T1, B-cell lymphoma 6 protein. The series can be described thus: Displacement AF647-NCOR peptide from human BCL6 BTB-POZ domain incubated for 60 mins by TR-FRET assay.
In series [20] the target is T1, B-cell lymphoma 6 protein. The series is described as follows: Inhibition of D2-SMRT peptide binding to human BCL6 BTB-POZ domain incubated for 60 mins by TR-FRET assay.

Values after ≈ are worked out from the molar mass of the structure shown.

As to `Cc1cc(C)n(-c2ncc(Cl)c(Nc3ccc(Cl)cc3)n2)n1`, the figures for the Kd in series [1] and in series [2] were 18 µM and 20 µM, respectively.

`C[C@@H]1CN(c2ncc(F)c(Nc3ccc(NC(=O)c4cccc(Br)n4)cc3)n2)C[C@H](C)N1`: the IC50 in series [3] is 1.1 µM; in series [4] it was 1.1 µM; in [5] it was 21.6 µM; in series [6], 1.1 µM; in [7] it was 1.1 µM; in series [9], 1.39 µM. In addition, the Kd was determined as 1.61 µM in series [8] and 1.37 µM in series [10].

Take H-HHHHHHPTATHAGLVATVKEAGRSIHEI-OH: the Kd is 148 µM in series [11] and 10.2 µM in series [15]. Moreover, the half-inhibitory concentration (IC50) in [12], in [13] and in series [14] was 11.3 µM throughout.

In the case of `O=C(CCl)NCCCCn1c(=O)[nH]c2ccc(Nc3ccc([N+](=O)[O-])cc3Cl)cc21`, in series [16], the Ratio is 3 10^1/M/s.

Turning to `C[C@@H](NC(=O)COC(=O)CCN1C(=O)/C(=C2/C(=O)Nc3ccc(Cl)cc32)SC1=S)C(=O)N[C@@H](CCC(=O)O)C(=O)O`, in [17], the solubility came to 0.218 µg/mL (≈ 0.348 µM).

As to `CCC(=O)NCCN1C(=O)C(CCCCNC(=O)CCl)Oc2cc(Nc3cc(OC4CCOCC4)c([N+](=O)[O-])cc3Cl)ccc21` (stereo unspecified), in series [16], the Ratio is 1.9 10^4/M/s.

As for `Cc1ncccc1[C@H]1C[C@@H](c2cccc3nc(N)ccc23)Nc2c(F)cnn21`, the IC50 in series [18] was 0.0251 µM; in series [19] it was 0.0251 µM; in series [20], 0.01 µM.
